This note sets out measurements from US7279444B2, “Substituted benzoylpyrazoles” (Bayer CropScience GmbH, priority 1999, dated 2007).

A short description of data set [1]: log P by HPLC on reversed-phase column (C 18), acidic range. Format: physicochemical. To be noted: marked a): acidic range, 0.1% aqueous phosphoric acid/acetonitrile gradient, HPLC reversed-phase C 18, 43° C.; Table 1. Here is the method: Temperature: 43° C. […] The log P values given in Table 3 were determined in accordance with EEC Directive 79/831 Annex V.A8 by HPLC (High Performance Liquid Chromatography) on a reversed-phase column (C 18). Temperature: 43° C. […] The log P values given in Tables 4 were determined in accordance with EEC Directive 79/831 Annex V.A8 by HPLC (High Performance Liquid Chromatography) on a reversed-phase column (C 18). Temperature: 43° C.

Data set [2] concerns weeds. The data set can be described thus: Pre-emergence test, activity against weeds. Format: in vivo. To be noted: soil sprayed about 24 hours after sowing, rated after three weeks. Here is the method: (§1) Pre-Emergence Test Solvent: 5 parts by weight of acetone Emulsifier: 1 part by weight of alkylaryl polyglycol ether To produce a suitable preparation of active compound, 1 part by weight of active compound is mixed with the stated amount of solvent, the stated amount of emulsifier is added and the concentrate is diluted with water to the desired concentration. Seeds of the test plants are sown in normal soil. After about 24 hours, the soil is sprayed with the preparation of active compound such that the particular amount of active compound is applied per unit area. The concentration of the spray liquor is chosen such that the particular amount of active compound desired is applied in 1000 liters of water per hectare. After three weeks, the degree of damage to plants is rated in % damage in comparison to the development of the untreated control. The figures denote: • 0%=no effect (like untreated control) • 100%=total destruction

Data set [3] relates to crop plants such as, for example, corn. Kind of data set: Pre-emergence test, tolerance by crop plants. The class given is in vivo. To be noted: rated after three weeks. Here is the method: as §1
In data set [4] the test system is weeds. Kind of data set: Post-emergence test, activity against weeds. Format: in vivo. To be noted: test plants of 5-15 cm sprayed, rated after three weeks. Here is the method: Solvent: 5 parts by weight of acetone
Emulsifier: 1 part by weight of alkylaryl polyglycol ether
To produce a suitable preparation of active compound, 1 part by weight of active compound is mixed with the stated amount of solvent, the stated amount of emulsifier is added and the concentrate is diluted with water to the desired concentration.
Test plants of a height of 5-15 cm are sprayed with the preparation of active compound such that the particular amounts of active compound are applied per unit area. The concentration of the spray liquor is chosen such that the particular amounts of active compound desired are applied in 10001 of water/ha.
After three weeks, the degree of damage to the plants is rated in % damage in comparison to the development of the untreated control.
• 0%=no effect (like untreated control) • 100%=total destruction

As to `CCn1ncc(C(=O)c2ccc(C(F)(F)F)cc2Cn2nc(SC)n(C)c2=O)c1O` [Example 3], in data set [1], the logP entry is “logP = 2.22^a)”. Further, the “activity against weeds (degree of damage)” value in the data set on weeds [2] and in the data set with weeds [4] was “strong activity” throughout. The “tolerance by crop plants” value in data set [3] is reported as “tolerated well”.
For `CCOc1nn(Cc2cc(C(F)(F)F)ccc2C(=O)c2cnn(CC)c2O)c(=O)n1C` [Example 2], the logP result in data set [1] is “logP = 2.34^a)”. Also, the “activity against weeds (degree of damage)” value with weeds [2] and in the data set on weeds [4] was “strong activity” each time. In addition, the “tolerance by crop plants” value in data set [3] is listed as “tolerated well”.
